# Reference: BigSolDB 2.1
smiles,measurement,setting,value
NC(=O)c1ncn([C@@H]2O[C@H](CO)[C@@H](O)[C@H]2O)n1,solubility (mole fraction),"in 1,4-dioxane, 283.15 K",7.06e-05
same,solubility (mole fraction),"in 1,4-dioxane, 288.15 K",0.000101
same,solubility (mole fraction),"in 1,4-dioxane, 293.15 K",0.000145
same,solubility (mole fraction),"in 1,4-dioxane, 298.15 K",0.000203
same,solubility (mole fraction),"in 1,4-dioxane, 303.15 K",0.000282
same,solubility (mole fraction),"in 1,4-dioxane, 308.15 K",0.000387
same,solubility (mole fraction),"in 1,4-dioxane, 313.15 K",0.000527
same,solubility (mole fraction),"in 1,4-dioxane, 318.15 K",0.000712
same,solubility (mole fraction),"in acetonitrile, 278.15 K",8.6e-06
same,solubility (mole fraction),"in acetonitrile, 283.15 K",1.33e-05
same,solubility (mole fraction),"in acetonitrile, 288.15 K",1.94e-05
same,solubility (mole fraction),"in acetonitrile, 293.15 K",2.77e-05
same,solubility (mole fraction),"in acetonitrile, 298.15 K",3.96e-05
same,solubility (mole fraction),"in acetonitrile, 303.15 K",5.64e-05
same,solubility (mole fraction),"in acetonitrile, 308.15 K",7.88e-05
same,solubility (mole fraction),"in acetonitrile, 313.15 K",0.00011
same,solubility (mole fraction),"in acetonitrile, 318.15 K",0.00015
same,solubility (mole fraction),"in methanol, 278.15 K",0.000379
same,solubility (mole fraction),"in methanol, 283.15 K",0.000517
same,solubility (mole fraction),"in methanol, 288.15 K",0.000711
same,solubility (mole fraction),"in methanol, 293.15 K",0.000952
same,solubility (mole fraction),"in methanol, 298.15 K",0.00128
same,solubility (mole fraction),"in methanol, 303.15 K",0.00171
same,solubility (mole fraction),"in methanol, 308.15 K",0.00223
same,solubility (mole fraction),"in methanol, 313.15 K",0.00293
same,solubility (mole fraction),"in methanol, 318.15 K",0.00379
same,solubility (mole fraction),"in n-propanol, 278.15 K",5.99e-05
same,solubility (mole fraction),"in n-propanol, 283.15 K",8.69e-05
same,solubility (mole fraction),"in n-propanol, 288.15 K",0.000122
same,solubility (mole fraction),"in n-propanol, 293.15 K",0.000171
same,solubility (mole fraction),"in n-propanol, 298.15 K",0.000242
same,solubility (mole fraction),"in n-propanol, 303.15 K",0.000332
same,solubility (mole fraction),"in n-propanol, 308.15 K",0.000455
same,solubility (mole fraction),"in n-propanol, 313.15 K",0.000617
same,solubility (mole fraction),"in n-propanol, 318.15 K",0.000829
same,solubility (mole fraction),"in water, 278.15 K",0.0058
same,solubility (mole fraction),"in water, 283.15 K",0.00775
same,solubility (mole fraction),"in water, 288.15 K",0.0104
same,solubility (mole fraction),"in water, 293.15 K",0.0135
same,solubility (mole fraction),"in water, 298.15 K",0.0174
same,solubility (mole fraction),"in water, 303.15 K",0.0219
same,solubility (mole fraction),"in water, 308.15 K",0.0273
same,solubility (mole fraction),"in water, 313.15 K",0.0335
same,solubility (mole fraction),"in water, 318.15 K",0.0405
